The source of these data is publication PMC9519446, “Discovery of an Orally Active Benzoxaborole Prodrug Effective in the Treatment of Chagas Disease in Non-human Primates” (Nature microbiology, 2022).

In data set [1] the test system is T. cruzi intracellular amastigotes. As to the kind of experiment: In vitro anti-T. cruzi intracellular amastigote growth inhibition assay (tdTomato fluorescence over 72 hours, Vero cells). It counts as cell-based, Trypanosoma cruzi. Put shortly:
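Intracellular amastigote growth was measured as change in tdTomato fluorescence over 72 h of culture. Extracellular amastigotes, obtained by acidic conversion of trypomastigotes (50,000/well), were exposed to 2-fold compound dilutions for 48 h, with ATPlite luminescence as the growth read-out. Dose-response curves were fitted by linear regression.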

For data set [2], the system named is CPSF3-OE T. cruzi intracellular amastigotes. As to the kind of experiment: microbe, parasite or virus in culture. The class given is cell-based. Particulars: Trypanosoma cruzi, read-out: CPSF3-OE IC50, intracellular amastigotes. As for the experimental part: (§1) The in vitro anti-T. cruzi amastiogote activity assay was performed and optimized based on the protocol described previously. The change in tdTomato fluorescence intensity was determined as a measurement of growth over 72 hours of culture. For assaying drug effects on extracellular amastigotes, trypomastigotes were collected from infected Vero cell cultures and converted in acidic media as previously described. Amastigotes (50,000/well) were incubated with 2-fold serial dilutions of compounds for 48 hours. The ATP production was used as an indication of growth in this case, and was measured by ATPlite Luminescence ATP Detection Assay System (PerkinElmer). Both fluorescence and luminescence were read using a BioTek Synergy Hybrid Multi-Mode reader equipped with the software Gene5 v 2.0 (BioTek). The dose-response curve was generated by […] analysis with GraphPad Prism v9.4.0 (GraphPad Software).
The CPSF3 gene was amplified using primers ‘[…]’ and ‘[…]’, and integrated into the pTrex vector [47] by NEBuilder HiFi DNA assembly (New England Biolabs). The construct of pTrex-CPSF was then transfected into Brazil tdTomato epimastigotes and selected by 60ug/ml blasticidin.
To confirm the CPSF overexpression in the selected transfectants, RNA was extracted as previously described and converted to cDNA using SuperScript Reverse Transcriptase (Invitrogen). Quantitative PCR reactions were performed in triplicate on the C1000 Touch Bio-Rad CFX96 real-time PCR detection system for CPSF using primer sets CPSF-1 (5'-[…]-3' and 5'-[…]-3') and CPSF-2 (5'-[…]-3' and 5'-[…]-3') in both control and CPSF over-expressing parasites, and the expression level was normalized to tubulin which was amplified using primers: ‘[…]’ and ‘[…]’.

For data set [3], the system named is TcCBP KO T. cruzi extracellular amastigotes. As to the kind of experiment: Extracellular amastigote assay with serine carboxypeptidase knockout T. cruzi. As to conditions: for % of maximum: Fig 2.c, TcCBP KO. It counts as cell-based, Trypanosoma cruzi. As for the experimental part:
as §1
The CBPs knockout was produced using ribonucleoprotein (RNP) complexes as previously described. Briefly, Brazil tdTomato strain epimastigotes were electroporated with RNP complexes containing SaCas9 and an sgRNA targeting CBP gene TcBrA4_0048170, plus a repair template containing stop codons in all three reading frames and the M13 sequence for use as a PCR anchor. The sgRNA targeted the ‘[…]” sequence. After 2 days of recovery, single-cell clones were derived by depositing epimastigotes into a 96-well plate at a density of 0.5 cell/well by using a MoFlo Astrios EQ cell sorter (Beckman Coulter). DNA isolation was performed for clones, and primer pair of 5’-[…]-3’ and 5’- […] -3’ was used for amplifying the wild type allele, while primer pair of M13-F: 5’- […] -3’ and 5’- […] -3’ was used for amplifying the mutant allele.

In another data set the test system is T. cruzi Brazil strain. As to the kind of experiment: Mouse cure assays (daily oral treatment, immunosuppression, qPCR of skeletal muscle, blood microscopy, hemoculture). As to conditions: for Parasite equivalent/ 50 ng of DNA of skeletal muscle: individual mice; for Parasite Equivalents/50ng of DNA of skeletal muscle: individual animals. The class given is in vivo, C57BL/6 mice. As for the experimental part: Male or female C57BL/6 mice were intraperitoneally infected with 10^4 trypomastigotes of the Brazil strain. Mouse infection was confirmed at 25-30 dpi by detection of CD8^+ T cells specific against the T. cruzi TSKb20 peptide in blood. Compounds resuspended in 1% carboxymethyl cellulose and 0.1% Tween 80, were administered daily by gavage at the specified concentrations. In order to optimally detect persistent infection, immune responses in the mice were suppressed by intraperitoneal injection of four doses of cyclophosphamide every 2-3 days (200 mg/kg/day), beginning one week after the end of therapeutic treatment. At the end of the immunosuppression regimen, peripheral blood was checked under light microscope for parasites and cultured in LDNT media. Mouse skeletal muscle samples were obtained at the end of the immunosuppression and processed for T. cruzi-DNA detection by qPCR as previously described.

Data set [4] deals with broad array of mammalian enzymes, receptors and ion channels. As to the kind of experiment: Preliminary safety pharmacology panel. It counts as binding.
Data set [5] is described as follows: In vitro micronucleus study. It counts as cell-based.
Data set [6] concerns representative cytochrome P450 enzymes. As to the kind of experiment: Cytochrome P450 inhibition. As to conditions: 10 uM. It counts as in vitro ADME.
The test system of data set [7] is wild-type and peptidase knockout T. cruzi epimastigotes and amastigotes. As to the kind of experiment: LC-MS/MS analysis of intracellular AN15368 and AN14667 (uptake and conversion). The class given is cell-based, Trypanosoma cruzi. As to conditions: epimastigotes 10 uM, amastigotes 50 nM; WT vs CBP KO. On the procedure: The cells were then pelleted and resuspended in 100 μL of PBS. The cell suspension was mixed with 200 μl of acetonitrile and centrifuged at 735 gfor 10 minutes at room temperature. After extraction, the supernatant was further diluted with methanol:water 30:70 (v/v) containing 0.4 nM internal standard (IS) AN14817 to a concentration within the calibration range. Each sample was diluted in triplicate to provide technical replicates and the diluted sample (10 μL) was injected for subsequent LC-MS/MS analysis.
LC-MS/MS analysis was performed on a Waters ACQUITY I-Class UPLC system coupled to a Xevo TQ-S triple quadrupole mass spectrometer. An ACQUITY UPLC BEH C18 column (130 Å, 1.7 μm, 2.1 mm x 50 mm) was used for chromatographic separation, and the column temperature was 40 °C. The mobile phase consisted of water (A) and methanol (B), both containing 0.1% (v/v) formic acid. The following gradient elution was performed at a flow rate of 0.4 mL/min: 0 – 0.5 min, 30% B; 0.5 – 3 min, 30 – 95% B; 3 – 4 min, 95% B; 4 – 4.1 min, 95 – 30% B; and 4.1 – 5 min, 30% B. The MS ionization was carried out in the positive electrospray ionization (ESI) mode with following conditions: capillary voltage = 1.50 kV; desolvation temperature = 500 °C; desolvation gas flow = 1000 L/h; and nebulizer gas pressure = 7.0 bar. […] Data were processed using TargetLynx v4.1 software (Waters).

Setting [8] is: Trypanosoma cruzi, Vero, read-out: WT IC50, WT intracellular amastigotes, control of CPSF3-OE comparison.
Where [9] appears, read: Trypanosoma cruzi, Vero, in vitro, Fig. 1a, Extended Data Fig. 1a, read-out: T. cruzi IC50.
The mark [10] stands for this setting: Fig. 3b, mice treated for 40 days.
Setting [11] is: Fig. 3c, mice treated for 20 days.

Where “and” joins values, the source holds several entries; their conditions need not be identical. Equal entries are not always repeated. Where two headings read alike, the source gives them in different places.

What is called IC50 is the concentration that gives 50% inhibition. For the compound `Cc1c(C(=O)NC(C(=O)OCc2ccc(F)c(F)c2)C(C)C)ccc2c1B(O)OC2` (stereo not shown) [AN14353], the IC50 in data set [1] (setting [8]) was 0.5 nM; in data set [1] (setting [9]), 6 nM; in [2], 1.9 nM; in data set [3] (Trypanosoma cruzi, read-out: TcCBP KO IC50), 44.4 nM. For the same compound, the “% of maximum” value in data set [3] (0.00) was 11% and 2% and 8%; in [3] (0.30) it was 1% and -4% and 3%; in [3] (-0.30), 1% and 9%; in data set [3] (-0.60), 14% and 11% and 5%; in [3] (-0.90), 20% and 18% and 16%; in data set [3] (-1.20) it was 31% and 40% and 33%. Moreover, the “% of maximum” value is 54% and 51% and 59% in data set [3] (-1.51); 101% and 104% and 95% in [3] (-1.81); 106% and 104% and 96% in [3] (-2.11); 101% and 104% in data set [3] (-2.41); 100% and 102% in data set [3] (-2.71). For the same compound, the “outcome of cure assay” value with T. cruzi Brazil strain (25 mg/kg, 40 day treatment, wild-type mice and immunodeficient mice) is listed as “could consistently resolve established T. cruzi infections”. Also, the “Parasite equivalent/ 50 ng of DNA of skeletal muscle” value was 0.00339 Parasite equivalent/ 50 ng of DNA and 0.0112 Parasite equivalent/ 50 ng of DNA and 0.00674 Parasite equivalent/ 50 ng of DNA and 0.0326 Parasite equivalent/ 50 ng of DNA and 0.00218 Parasite equivalent/ 50 ng of DNA and 6.96e-5 Parasite equivalent/ 50 ng of DNA and 0.03 Parasite equivalent/ 50 ng of DNA in the data set on T. cruzi Brazil strain (setting [10]); 3.39 Parasite equivalent/ 50 ng of DNA and 0.89 Parasite equivalent/ 50 ng of DNA and 0.07 Parasite equivalent/ 50 ng of DNA and 1.14 Parasite equivalent/ 50 ng of DNA and 0.69 Parasite equivalent/ 50 ng of DNA and 1.27 Parasite equivalent/ 50 ng of DNA in the data set with T. cruzi Brazil strain (setting [11]). For the same compound, the “Parasite Equivalents/50ng of DNA of skeletal muscle” value was 0.000877 Parasite Equivalents/50ng of DNA and 0.0011 Parasite Equivalents/50ng of DNA and 0.000197 Parasite Equivalents/50ng of DNA and 0.013 Parasite Equivalents/50ng of DNA and 0.002 Parasite Equivalents/50ng of DNA and 0.00327 Parasite Equivalents/50ng of DNA and 0.004 Parasite Equivalents/50ng of DNA and 0.00265 Parasite Equivalents/50ng of DNA and 0.000622 Parasite Equivalents/50ng of DNA in the data set with T. cruzi Brazil strain (IFNg KO mice); 0.00752 Parasite Equivalents/50ng of DNA and 0.05 Parasite Equivalents/50ng of DNA and 0.00 Parasite Equivalents/50ng of DNA in the data set with T. cruzi Brazil strain (mice, 10 mg/kg); 0.00369 Parasite Equivalents/50ng of DNA and 0.00 Parasite Equivalents/50ng of DNA and 0.00185 Parasite Equivalents/50ng of DNA and 0.0154 Parasite Equivalents/50ng of DNA with T. cruzi Brazil strain (mice, 25 mg/kg). The “affinity for mammalian enzymes, receptors and ion channels” value in [4] was “little to no affinity”. In addition, the “genotoxicity, Ames” value in “Ames study” is reported as “non-genotoxic”. Moreover, the “genotoxicity, in vitro micronucleus” value in data set [5] is “non-genotoxic”. The “inhibition of representative cytochrome P450 enzymes” value in [6] is “did not demonstrate significant inhibition”. Moreover, the “oral absorption (in words)” value in “Pharmacokinetics in mice” (mice, dose proportionality evaluation) is reported as “solubility-limited absorption”. Moreover, in the data set “Pharmacokinetics in mice” (mice, oral), the “dose proportionality of exposure” value was “lack of dose”.
On to `Cc1c(C(=O)N[C@H](C(=O)OCC2CCOCC2)C(C)C)ccc2c1B(O)OC2` [AN15368], for which, in data set [1] (Fig 5.d, WT, [uM] 0.60), the “% of maximum” value was -2%. Also, the activity at 0.6 µM in [1] (Trypanosoma cruzi, Vero, 72 h, read-out: % of maximum, Fig 5.d, WT, [uM] 0.60) was -2%. Also, the IC50 in data set [1] (Trypanosoma cruzi, Vero, 120 h, read-out: WT IC50, WT intracellular amastigotes, control of CPSF3 mutant comparison, Fig. 5d) was 12 nM; in data set [1] (setting [8]), 2.4 nM; in data set [1] (Trypanosoma cruzi, Vero, read-out: WT IC50, WT intracellular amastigotes, control of TcCBP KO comparison), 2.4 nM; in [1] (setting [9]), 5 nM; in data set [2], 11.8 nM. For the same compound, in the data set with T. cruzi Brazil strain (40 day treatment cure assay, Fig 3e), the “minimal efficacious dose in mice” value is reported as 2.5 mg/kg. The “Parasite equivalent/ 50 ng of DNA of skeletal muscle” value with T. cruzi Brazil strain (setting [10]) was 0.0182 Parasite equivalent/ 50 ng of DNA and 0.32 Parasite equivalent/ 50 ng of DNA and 0.00408 Parasite equivalent/ 50 ng of DNA and 0.015 Parasite equivalent/ 50 ng of DNA and 0.12 Parasite equivalent/ 50 ng of DNA and 0.09 Parasite equivalent/ 50 ng of DNA and 0.06 Parasite equivalent/ 50 ng of DNA; in the data set with T. cruzi Brazil strain (setting [11]), 0.60 Parasite equivalent/ 50 ng of DNA and 0.12 Parasite equivalent/ 50 ng of DNA and 6.19 Parasite equivalent/ 50 ng of DNA and 0.32 Parasite equivalent/ 50 ng of DNA and 0.45 Parasite equivalent/ 50 ng of DNA; with T. cruzi Brazil strain (Fig. 3e, mice treated for 40 days with 2.5 mg/kg, 2.5 mg/kg), 0.7074 Parasite equivalent/ 50 ng of DNA and 0.07409 Parasite equivalent/ 50 ng of DNA and 0.06686 Parasite equivalent/ 50 ng of DNA and 0.2452 Parasite equivalent/ 50 ng of DNA and 0.02329 Parasite equivalent/ 50 ng of DNA and 2.237 Parasite equivalent/ 50 ng of DNA and 0.1466 Parasite equivalent/ 50 ng of DNA. In addition, the “outcome of cure assays” value with T. cruzi Brazil strain (mice, Fig. 3) is reported as “cures T. cruzi infection in mice”. In addition, the “affinity for mammalian enzymes, receptors and ion channels” value in [4] is reported as “little to no affinity”. Further, the “genotoxicity, Ames” value in the data set “Ames study” is given as “non-genotoxic”. In addition, the “genotoxicity, in vitro micronucleus” value in data set [5] is on record as “non-genotoxic”. In addition, the “inhibition of representative cytochrome P450 enzymes” value in [6] was “did not demonstrate significant inhibition”. Further, the “accumulation and conversion to cleaved product AN14667” value in data set [7] is “conversion to the cleaved product in wild-type T. cruzi epimastigotes and amastigotes but not in the KO line”. For the same compound, the “exposure AUC0-last” value in “Pharmacokinetics in mice” (mice, 10mg/kg dose) was 17.5 µg·h/kg. In addition, the “minimal curative exposure in mice” value in “Pharmacokinetics in mice” (mouse, in vivo, 2.5 mg/kg) was determined as 4.375 µg·h/kg.
